# Data reported in US20260098283A1, “In Vitro Bioproduction of Specific Chain Legnth Poly(hydroxyalkanoate) Monomers” (Kimberly-Clark Worldwide, Inc., priority 2022, published 2026).
# Assays:
# [1] = tested on: fatty acid-CoA ligase QKS24113; experiment: substrate chain length preference of fatty acid-CoA ligase QKS24113; format: biochemical, Halomonas titanicae; conditions: for suitability of the enzyme for the fatty acid (optimal / possible / not possible): result in words; for percent activity: substrate chain length preference distribution, percent activity vs. carbon length, enzyme QKS24113
# From the text: (§1) • Sources: Enzyme sequences were identified by searching the NCBI Protein or Identical Protein Group databases. For this example, it was decided to focus primarily on the thermohalophile Thermobifida halotolerans. Sequences and accession numbers for the enzymes used in this work are listed in Appendix I. All general laboratory chemicals and long chain fatty acids were purchased from Millipore-Sigma Chemical Company (St. Louis, MO). Cloning materials and protein purification supplies were from New England Biolabs (Beverly, MA). • Enzyme cloning: The amino acid sequence for each enzyme was searched for potential signal sequences. If one was present it was removed from the sequence. A histine tag and a TEV protease cleavage sequence were added to the N-ter of each enzyme. This sequence was MHHHHHHENLYFQS to assist in purification (via an NTA-Ni column) and subsequent removal of the hexahistidine tag. Each recombinant enzyme began with an N-ter serine residue as TEV protease cleaves after the glutamine (Q). Each amino acid sequence was back translated to an E. coli codon optimized nucleic acid sequence and was synthesized using standard laboratory gene synthesis techniques. The insert was digested with Nde I and cloned into the similarly digested expression vector pET11d. Final DNA sequences were verified by DNA sequencing. Expression plasmids were used to transform E. coli Origami2 (DE3) for expression. • Protein expression and purification: A single colony was used to inoculate 5.0 mL of LBamp media ([…] ampicillin concentration). Bacteria were grown for 12 hours at 37° C. and this culture was used to inoculate 500 mL of LBamp media. This culture was grown at 37° C. until the optical density (600 nm) reached 0.4 (typically in 3-5 hours). Protein expression was induced by the addition of IPTG to a final concentration of 1 mM. Cells were grown for 12 hours at 37° C. Cells were harvested by centrifugation at 5,000×g for 20 minutes, and frozen at −80° C. until use (minimal time frozen was 24 hours). Cells were thawed on ice and were resuspended in Buffer A (0.5 M NaCl, 20 mM Tris-HCl, 5 mM imidazole, pH 7.9) (typically 1 mL per gram of cells). Cells were disrupted via two passes through a French Press followed by centrifugation at 30,000×g for 30 minutes. The crude extract was mixed with an equal volume of charged His-Bind resin slurry and the mixture was poured into 5 cm×4.9 cc column. The column was washed with 10 column volumes of wash buffer (0.5 M NaCl, 20 mM Tris-HCl, 60 mM imidazole, pH 7.9) at a flow rate of 0.2 mL/min. Enzyme was eluted from the column with the addition of 3 column volumes of 0.5 M NaCl, 20 mM Tris-HCl, 1.0 M imidazole, pH 7.9. Fractions were collected (1.0 mL). Fractions containing enzyme were pooled after analysis by SDS PAGE. The pooled fractions were applied to a 70 cmp×4.9 cc Sephadex G-75 column (10 mM Tris-HCl, PH 7.5, 1 mM EDTA). Fractions containing homogeneous protein were pooled (after inspection by SDS PAGE) and concentrated to 5 mg/ml via Centricon filters. Enzyme was stored frozen at −20° C. until use. The TRX-histidine tag region was removed from the enzymes using TEV protease. Protein was diluted to 1.0 mg/ml into 10 mM Tris-HCl, pH 7.5, 25 mM NaCl. 100 U of TEV protease was added per mg of enzyme (approximate ratio of 1:100 (w/w). The reaction was allowed to proceed for 16 h at 4° C. The mixture was passed over a charged nickel column. One column volume of eluent was collected representing purified tag-free enzyme. • Enzyme assays: The formation of long-chain fatty acid-CoA was monitored by measuring the amount of pyrophosphate released from the reaction using the MAK 168 pyrophosphate assay kit from Millipore-Sigma Chemical Co (St. Louis, MO). The formation of PHA was monitored by the increase in optical density (650 nm) as a function of time in a Molecular Devices SpectraMax 5 spectrometer. The assay measures the increase in light scattering due to precipitating PHA formed during the reaction. […]
# [2] = tested on: overall 5-step reaction from long-chain fatty acid CoA to PHA; experiment: formation of precipitating PHA, optical density 650 nm, Example 1; format: biochemical, Thermobifida halotolerans; conditions: Example 1, FIG. 8; fatty acid as starting material
# From the text: as §1, with “Cells were thawed on ice and were resuspended in Buffer A (0.5 M NaCl, 20 mM Tris-HCl, 5 mM imidazole, pH 7.9) (typically 1 mL per gram of cells). Cells were disrupted via two passes through a French Press followed by centrifugation at 30,000×g for 30 minutes. The crude extract was mixed with an equal volume of charged His-Bind resin slurry and the mixture was poured into 5 cm×4.9 cc column. The column was washed with 10 column volumes of wash buffer (0.5 M NaCl, 20 mM Tris-HCl, 60 mM imidazole, pH 7.9) at a flow rate of 0.2 mL/min. Enzyme was eluted from the column with the addition of 3 column volumes of 0.5 M NaCl, 20 mM Tris-HCl, 1.0 M imidazole, pH 7.9. Fractions were collected (1.0 mL). Fractions containing enzyme were pooled after analysis by SDS PAGE. The pooled fractions were applied to a 70 cmp×4.9 cc Sephadex G-75 column (10 mM Tris-HCl, PH 7.5, 1 mM EDTA). Fractions containing homogeneous protein were pooled (after inspection by SDS PAGE) and concentrated to 5 mg/ml via Centricon filters. Enzyme was stored frozen at −20° C. until use. The TRX-histidine tag region was removed from the enzymes using TEV protease. Protein was diluted to 1.0 mg/ml into 10 mM Tris-HCl, pH 7.5, 25 mM NaCl.” left out, “spectrometer.” for “spectrometer. The assay measures the increase in light scattering due to precipitating PHA formed during the reaction.”
# [3] = tested on: fatty acid-CoA ligase QKS26753; experiment: substrate chain length preference of fatty acid-CoA ligase QKS26753; format: biochemical, Halomonas titanicae; conditions: for suitability of the enzyme for the fatty acid (optimal / possible / not possible): result in words; for percent activity: substrate chain length preference distribution, percent activity vs. carbon length, enzyme QKS26753
# From the text: as §1
# [4] = tested on: fatty acid-CoA ligase QKS23364; experiment: substrate chain length preference of fatty acid-CoA ligase QKS23364; format: biochemical, Halomonas titanicae; conditions: for suitability of the enzyme for the fatty acid (optimal / possible / not possible): result in words; for percent activity: substrate chain length preference distribution, percent activity vs. carbon length, enzyme QKS23364
# From the text: as §1
# [5] = tested on: fatty acid-CoA ligase QKS25406; experiment: substrate chain length preference of fatty acid-CoA ligase QKS25406; format: biochemical, Halomonas titanicae; conditions: for suitability of the enzyme for the fatty acid (optimal / possible / not possible): result in words; for percent activity: substrate chain length preference distribution, percent activity vs. carbon length, enzyme QKS25406
# From the text: as §1
# [6] = tested on: fatty acid-CoA ligase QKS24074; experiment: substrate chain length preference of fatty acid-CoA ligase QKS24074; format: biochemical, Halomonas titanicae; conditions: for suitability of the enzyme for the fatty acid (optimal / possible / not possible): result in words; for percent activity: substrate chain length preference distribution, percent activity vs. carbon length, enzyme QKS24074
# From the text: as §1
# [7] = tested on: long-chain fatty acid CoA ligase; experiment: long-chain fatty acid CoA ligase reaction time course, Example 1 (fatty acid loss, pyrophosphate formation); format: biochemical, Thermobifida halotolerans; conditions: Example 1, FIG. 6/7; single fatty acid substrate
# From the text: (§2) • Sources: Enzyme sequences were identified by searching the NCBI Protein or Identical Protein Group databases. For this example, it was decided to focus primarily on the thermohalophile Thermobifida halotolerans. Sequences and accession numbers for the enzymes used in this work are listed in Appendix I. All general laboratory chemicals and long chain fatty acids were purchased from Millipore-Sigma Chemical Company (St. Louis, MO). Cloning materials and protein purification supplies were from New England Biolabs (Beverly, MA). • Enzyme cloning: The amino acid sequence for each enzyme was searched for potential signal sequences. If one was present it was removed from the sequence. […] 100 U of TEV protease was added per mg of enzyme (approximate ratio of 1:100 (w/w). The reaction was allowed to proceed for 16 h at 4° C. The mixture was passed over a charged nickel column. One column volume of eluent was collected representing purified tag-free enzyme. • Enzyme assays: The formation of long-chain fatty acid-CoA was monitored by measuring the amount of pyrophosphate released from the reaction using the MAK 168 pyrophosphate assay kit from Millipore-Sigma Chemical Co (St. Louis, MO). The formation of PHA was monitored by the increase in optical density (650 nm) as a function of time in a Molecular Devices SpectraMax 5 spectrometer. […]
# fatty acid-CoA ligase = experiment: long-chain fatty acid CoA ligase reaction time course, Example 5; format: biochemical, Halomonas titanicae; conditions: Example 5, FIG. 20/21; 1.0 M NaCl, pH 7.5
# From the text: as §2, with “sequence. A histine tag and a TEV protease cleavage sequence were added to the N-ter of each enzyme. This sequence was MHHHHHHENLYFQS to assist in purification (via an NTA-Ni column) and subsequent removal of the hexahistidine tag. Each recombinant enzyme began with an N-ter serine residue as TEV protease cleaves after the glutamine (Q). Each amino acid sequence was back translated to an E. coli codon optimized nucleic acid sequence and was synthesized using standard laboratory gene synthesis techniques. The insert was digested with Nde I and cloned into the similarly digested expression vector pET11d. Final DNA sequences were verified by DNA sequencing.” for “sequence.”
# [8] = tested on: five-step reaction from long-chain fatty acid CoA to PHA; experiment: formation of precipitating PHA, optical density 650 nm, Example 5; format: biochemical, Halomonas titanicae; conditions: Example 5, FIG. 22; fatty acid as starting material
# From the text: as §2, with “sequence. A histine tag and a TEV protease cleavage sequence were added to the N-ter of each enzyme. This sequence was MHHHHHHENLYFQS to assist in purification (via an NTA-Ni column) and subsequent removal of the hexahistidine tag. Each recombinant enzyme began with an N-ter serine residue as TEV protease cleaves after the glutamine (Q). Each amino acid sequence was back translated to an E. coli codon optimized nucleic acid sequence and was synthesized using standard laboratory gene synthesis techniques. The insert was digested with Nde I and cloned into the similarly digested expression vector pET11d. Final DNA sequences were verified by DNA sequencing.” for “sequence.”
# [9] = tested on: WP_068692787 enzyme (long chain fatty acid-CoA synthetase); experiment: formation of the CoA moiety followed by pyrophosphate formation, Example 4; format: biochemical, Thermobifida halotolerans; conditions: Example 4, FIG. 16; result in words
# From the text: as §2
# [10] = tested on: WP_068689753 enzyme (long chain fatty acid-CoA synthetase); experiment: formation of the CoA moiety followed by pyrophosphate formation, Example 3; format: biochemical, Thermobifida halotolerans; conditions: Example 3, FIG. 13; sole substrate
# From the text: as §2
Structure (SMILES),suitability of the enzyme for the fatty acid (optimal / possible / not possible) [1],percent activity [1] [%],duration of linear formation of precipitating PHA after the lag [2] [min],lag before measurable increase in optical density (650 nm) [2],suitability of the enzyme for the fatty acid (optimal / possible / not possible) [3],percent activity [3] [%],suitability of the enzyme for the fatty acid (optimal / possible / not possible) [4],percent activity [4] [%],suitability of the enzyme for the fatty acid (optimal / possible / not possible) [5],percent activity [5] [%],suitability of the enzyme for the fatty acid (optimal / possible / not possible) [6],percent activity [6] [%],time to completion of the long-chain fatty acid CoA ligase reaction [7],time to completion of the long-chain fatty acid CoA ligase reaction (fatty acid-CoA ligase),duration of linear formation of precipitating PHA after the lag [8] [min],conversion into the CoA moiety [9],completion of formation of the CoA moiety [10] [min],lag period of formation of the CoA moiety [10] [min]
"CCCCCCCCCCCCCC(=O)O [C12, myristic acid]",much lower activity,5.2,150,approximately 50 minutes,optimal enzymes,100,optimal enzymes,100,much lower activity,11.6,much lower activity,21.0,complete within two hours,complete within two hours,100,–,–,–
"CCCCCCCCCCCCCCCCCCCCCC(=O)O [C20, behenic acid]",optimal enzymes,100,–,–,not possible enzymes,0.0,much lower activity,46.5,optimal enzymes,100,not possible enzymes,0.0,–,complete within two hours,100,–,–,–
"CCCCCCCC(=O)O [C6, octanoic acid]",not possible enzymes,0.0,–,–,not possible enzymes,0.0,much lower activity,25.0,not possible enzymes,0.0,optimal enzyme,100,–,complete within two hours,100,–,–,–
CCCCCCCCCCCCCCCC(=O)O [C14],–,21.1,–,–,–,100,–,100,–,30.4,–,0.0,–,–,–,–,–,–
"CCCCCCCCCCCCCCCCCCCC(=O)O [C18, arachidic acid]",–,100,150,approximately 50 minutes,–,5.6,–,100,–,100,–,0.0,complete within two hours,–,–,–,–,–
CCCCCCCCCC(=O)O [C8],–,0.0,–,–,–,0.0,–,70.7,–,0.0,–,100,–,–,–,–,–,–
CCCCCCC(=O)O [Heptanoic acid],–,–,–,–,–,–,–,–,–,–,–,–,–,–,–,readily converted,–,–
CCCCCCCCCCCCCCCCCCCCCCCCCC(=O)O [hexacosanoic acid],–,–,–,–,–,–,–,–,–,–,–,–,–,–,–,–,240,50
